Structures can show the parent of a compound that is named as a salt. Where two headings read alike, the source gives them in different places.
What was measured:
Assay type in all cases: biochemical
recombinant PRL-2 = target: T1, recombinant PRL-2 (Homo sapiens, UniProt Q12974); assay: In vitro phosphatase assay (DiFMUP hydrolysis), PRL-2;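 also: PRL-2 activity read as DiFMUP hydrolysis after 20 min at room temperature with drug, enzyme first pre-reduced at 4 °C for 20 min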
T1 construct: 6xHis (N, cleaved yes); made in house; host or cells: E. coli One Shot BL21 Star
T1 sequence (Q12974 1-167): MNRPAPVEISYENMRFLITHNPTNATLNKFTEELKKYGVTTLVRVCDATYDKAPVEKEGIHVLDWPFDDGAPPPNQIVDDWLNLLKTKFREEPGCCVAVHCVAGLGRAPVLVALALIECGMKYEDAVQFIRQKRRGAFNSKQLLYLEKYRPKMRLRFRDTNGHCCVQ

recombinant PRL-1 = target: T2, recombinant PRL-1 (Homo sapiens, UniProt Q93096); assay: In vitro phosphatase assay (DiFMUP hydrolysis), PRL-1; also: test concentration or dose not given here
T2 construct: 6xHis (N, cleaved yes); made in house; host or cells: E. coli One Shot BL21 Star
T2 sequence (Q93096 1-173): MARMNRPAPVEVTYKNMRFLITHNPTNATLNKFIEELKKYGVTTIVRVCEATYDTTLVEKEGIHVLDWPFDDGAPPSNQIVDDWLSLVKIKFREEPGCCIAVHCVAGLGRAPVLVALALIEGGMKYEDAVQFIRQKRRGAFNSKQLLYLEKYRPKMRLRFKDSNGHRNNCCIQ

recombinant PRL-3 = target: T3, recombinant PRL-3 (Homo sapiens, UniProt O75365); assay: In vitro phosphatase assay (DiFMUP hydrolysis), PRL-3; also: test concentration or dose not given here
T3 construct: 6xHis (N, cleaved yes); made in house; host or cells: E. coli One Shot BL21 Star

[1] = FDA-approved drug screen, compared to DMSO

T3 sequence (O75365 whole entry): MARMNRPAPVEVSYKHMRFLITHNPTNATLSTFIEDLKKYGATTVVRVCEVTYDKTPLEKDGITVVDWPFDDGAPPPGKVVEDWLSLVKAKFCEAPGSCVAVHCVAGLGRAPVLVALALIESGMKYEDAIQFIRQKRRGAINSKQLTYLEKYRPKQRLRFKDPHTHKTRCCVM

Row | Structure (SMILES) | % Phosphatase Activity (compared to DMSO) PRL-2 (recombinant PRL-2; [1]) [%] | % Phosphatase Activity (compared to DMSO) PRL-1 (recombinant PRL-1; [1]) [%] | % Phosphatase Activity (compared to DMSO) PRL-3 (recombinant PRL-3; [1]) [%] | % Phosphatase Activity (compared to DMSO) PRL-2 (recombinant PRL-2) [%] | % Phosphatase Activity (compared to DMSO) PRL-1 (recombinant PRL-1) [%] | % Phosphatase Activity (compared to DMSO) PRL-3 (recombinant PRL-3) [%]
1 | O.O.O.O.O=C([O-])CC(O)(CC(=O)[O-])C(=O)[O-].[Li+].[Li+].[Li+] [Citric acid trilithium salt tetrahydrate] | 92 | 93 | 89 |  |  | 
2 | Nc1nc(Cl)nc2c1ncn2[C@H]1C[C@H](O)[C@@H](CO)O1 [Cladribine] | 93 | 98 | 82 |  |  | 
3 | CCCC(=O)OCOC(=O)C1=C(C)NC(C)=C(C(=O)OC)C1c1cccc(Cl)c1Cl (stereo not drawn) [Clevidipine Butyrate] | 437 | 473 | 262 |  |  | 
4 | Cc1cn([C@H]2O[C@@H](CO)[C@H](O)[C@H]2F)c(=O)[nH]c1=O [Clevudine] | 117 | 103 | 89 |  |  | 
5 | CC(C)(C)C(=O)C(Oc1ccc(Cl)cc1)n1ccnc1 (stereo not drawn) [Climbazole] | 94 | 87 | 73 |  |  | 
6 | CCC[C@@H]1C[C@@H](C(=O)N[C@@H]([C@H]2O[C@H](SC)[C@H](OP(=O)(O)O)[C@@H](O)[C@H]2O)[C@H](C)Cl)N(C)C1 [Clindamycin Phosphate] | 76 | 93 | 88 |  |  | 
7 | CCCCCCCCCCCCCCCC(=O)O[C@@H]1[C@@H](O)[C@@H](O)[C@@H]([C@H](NC(=O)[C@@H]2C[C@@H](CCC)CN2C)[C@H](C)Cl)O[C@@H]1SC.Cl [Clindamycin palmitate HCl] | 133 | 107 | 106 |  |  | 
8 | CCC(=O)O[C@]1(C(=O)CCl)[C@@H](C)C[C@H]2[C@@H]3CCC4=CC(=O)C=C[C@]4(C)[C@@]3(F)[C@@H](O)C[C@@]21C [Clobetasol propionate] | 88 | 92 | 78 |  |  | 
9 | Nc1nc(Cl)nc2c1ncn2[C@@H]1O[C@H](CO)[C@@H](O)[C@@H]1F [Clofarabine] | 100 | 97 | 81 |  |  | 
10 | CC(C)/N=c1\cc2n(-c3ccc(Cl)cc3)c3ccccc3nc-2cc1Nc1ccc(Cl)cc1 [Clofazimine] | 96 | 78 | 69 |  |  | 
11 | CC(C)(Oc1ccc(Cl)cc1)C(=O)O [Clofibric Acid] | 95 | 99 | 81 |  |  | 
12 | CC(C)(C)CC(C)(C)c1ccc(O)c(Cc2ccc(Cl)cc2Cl)c1 [Clofoctol] | 87 | 91 | 83 |  |  | 
13 | CCN(CC)CCOc1ccc(C(=C(Cl)c2ccccc2)c2ccccc2)cc1 [Clomifene citrate] | 128 | 120 | 96 |  |  | 
14 | CN(C)CCCN1c2ccccc2CCc2ccc(Cl)cc21 [Clomipramine HCl] | 114 | 108 | 96 |  |  | 
15 | Clc1cccc(Cl)c1N=C1NCCN1 [Clonidine HCl] |  |  |  | 115 | 118 | 85
16 | COC(=O)[C@H](c1ccccc1Cl)N1CCc2sccc2C1 [Clopidogrel] |  |  |  | 86 | 100 | 81
17 | Cc1nc(C)c(Cl)c(O)c1Cl [Clopidol] | 109 | 112 | 80 |  |  | 
18 | CC(C)NCC(O)c1ccccc1Cl.Cl (stereo not drawn) [Clorprenaline HCl] | 102 | 91 | 75 |  |  | 
19 | Nc1cc(C(Cl)=C(Cl)Cl)c(S(N)(=O)=O)cc1S(N)(=O)=O [Clorsulon] | 115 | 98 | 92 |  |  | 
